Results from article PMC9814544 (Communications Chemistry, 2020).
In brackets after ≈: the same amount, converted by molar mass. Where two headings read alike, the source gives them in different places.

Key:
[1] = AF dye fluorescence quenching assay; conditions: at 30 µM; n = 1
Method: Employing filter criteria like < 65% control in the primary assay and a minimum difference of 30% to the SR-B1 counter screen, about 3300 compounds remained. These compounds were tested in concentration response using both assay formats (Supplementary Fig. 1). To qualify the identified compounds further we developed additional assays with the goal to identify compounds that merely quenched the AF dye fluorescence. In this assay, the fluorescence signal of human AF647- or AF594-labeled oxLDL was recorded in the presence and absence of compound. Only compounds without relevant quenching were subsequently selected for further analysis.
Furthermore, quenching assays were established to eliminate compounds showing quenching of the AF594 or AF647 dye fluorescence. For this, human oxLDL labeled with either AF594 or AF647 was incubated with compound and the fluorescence signal with and without compound was measured to determine the quenching of the fluorescence. For both compounds quenching of fluorescence has been tested with n = 1.

[2] = High throughput solubility; type: physicochemical; conditions: for solubility at 24 h: aqueous buffer, kinetic from dmso stock, n = 1
Method: The aqueous solubility of the test compound is determined by comparing the amount dissolved in buffer to the amount in an acetonitrile/water (1/1) solution. Starting from a 10 mM DMSO stock solution aliquots are diluted with acetonitrile/water (1/1) or buffer resp. After 24h of shaking, the solutions are filtrated and analyzed by LC-UV. The amount dissolved in buffer is compared to the amount in the acetonitrile solution. Solubility will usually be measured from 0.001 to 0.125 mg/ml at a DMSO concentration of 2.5%. The solubility at the different pH values for BI-0115 were measured with n = 1.

[3] = Metabolic stability in human liver microsomes; type: in vitro ADME; conditions: in vitro clearance as % hepatic blood flow, n = 1
Method: The metabolic degradation of the test compound is assayed at 37 °C with microsomes. The final incubation volume of 100 µl per time point contains TRIS buffer pH 7.6 at RT (0.1 M), magnesium chloride (5 mM), microsomal protein (1 mg/ml or 0.5 mg/ml depending on species) and the test compound at a final concentration of 1 µM.
Following a short preincubation period at 37 °C, the reactions were initiated by addition of beta-nicotinamide adenine dinucleotide phosphate, reduced form (NADPH, 1 mM) and terminated by transfering an aliquot into solvent after different time points. The quenched incubations are pelleted by centrifugation (10000 g, 5 min). An aliquot of the supernatant is assayed by LC-MS/MS for the amount of parent compound. The slope of the semi logarithmic plot of the concentration-time profile determines the half-life. The clearance is calculated by upscaling considering the amount of protein in the incubation, microsomal recovery and liver weight and normalized to the hepatic blood flow of the respective species. The number of experiments for BI-0115 is n = 1.

With CCCN1C(=O)c2ccc(Cl)cc2Nc2ncccc21 [BI-0115] the “Quench Assay” value [1] was −9.1%, the solubility at 24 h ([2]; pH 4, aqueous buffer, pH4, read-out: Solubility pH4) was 1 µg/mL (≈ 3.48 µM) and the solubility at 24 h ([2]; pH 7, aqueous buffer, pH7, read-out: Solubility pH7) was 1 µg/mL (≈ 3.48 µM). The compound solubility ([2]; in words) was “low” and the “micr. Stab hLM” value [3] was 77 %QH.
